Source: US20070015786A1, “Treatment of hot flashes, impulse control disorders and personality change due to a general medical condition” (Eli Lily and Company, priority 2003, published 2007)
Where “and” joins values, the source holds several entries; their conditions need not be identical. Equal values may be shown once.

System: ovariectomized Sprague-Dawley rats
Test: Morphine withdrawal rat hot flush model (naloxone-induced tail skin temperature rise)
Format: in vivo
Details: for morphine withdrawal hot flush model responsive to agent: data not shown
Text: Simpkins et al. ((1983) Life Sci. 32:1957-1966) first published morphine withdrawal in the rat as a putative model for hot flushes, based on observations highlighting the similarity of symptoms of gonadal steroid withdrawal to those of opioid withdrawal. Although less severe, the signs and symptoms associated with clinical hot flushes, or estrogen deficiency, in the rat parallel those produced by naloxone-precipitated withdrawal in morphine dependent rats, including: 1) an increase in tail skin temperature; 2) a surge in luteinizing hormone; and 3) an increase in heart rate. Each of these responses is associated with an increase in sympathetic outflow, which is a current mechanistic hypothesis for hot flushes.
In this example, a modification of the original procedure of Simpkins et al. (1983) is used, employing ovariectomized Sprague-Dawley rats. Animals at 60 days of age (or 200-225 grams) are ovariectomized, and allowed a 14-day rest period to insure surgical recovery and clearance of endogenous ovarian hormones. Test compound administration (po or sc) is initiated on day 14 post-ovariectomy in a volume of 1 ml/kg. Once daily administration of test compounds continues through the end of the experiment. On days 15 and 17 post-ovariectomy, the rats are lightly anesthetized with isoflurane and a single 75 mg morphine (free base) pellet is surgically implanted subcutaneously.
On day 21 post-ovariectomy, animals are given ketamine (80 mg/kg; IM) 2 hours after final administration of the test compound. Following induction of the anesthesia, rats are then placed in individual plexiglass cages and temperature sensitive probes are applied to the dorsal side of the tail base. Temperature monitoring is initiated 30 minutes after administration of ketamine, and is recorded every 15 seconds for a 1-hr period. To induce morphine withdrawal, 1 mg/kg naloxone is given subcutaneously 15 minutes after start of temperature monitoring. A sharp rise in tail skin temperature typically occurs within 5 minutes post-naloxone injection, and two quantitative endpoints are made: 1) tail skin temperature at 15 minutes post-naloxone, and 2) area under the temperature response curve for the 45 minute post-naloxone measurement period.
Ethinyl estradiol is dosed orally at 0.3 mg/kg as a positive control. […] Using area under the curve measurements, the response induced by each compound is calculated as a percent inhibition of temperature increase versus the morphine control.

CCOc1ccccc1OC(c1ccccc1)C1CNCCO1 (racemic) [reboxetine]
% Inhibition vs. Morphine Control (rat, in vivo, sc, 5 mg/kg): 94%

CCOc1ccccc1OC(c1ccccc1)C1CNCCO1 [(R,S)-Reboxetine, (R,S)-reboxetine]
% Inhibition vs. Morphine Control (rat, in vivo, sc, 5 mg/kg): 94%

CNCCCN1c2ccccc2CCc2ccccc21 [Desipramine, desipramine]
% Inhibition vs. Morphine Control (PO, 10 mg/kg, area under the tail skin temperature curve, 45 min post-naloxone): 101%
% Inhibition vs. Morphine Control (PO, 10 mg/kg, area under the tail skin temperature curve, 45 min post-naloxone, listed as desipramine): 101%

C#C[C@]1(O)CC[C@H]2[C@@H]3CCc4cc(O)ccc4[C@H]3CC[C@@]21C [Ethinyl Estradiol, Ethinyl estradiol]
% Inhibition vs. Morphine Control (PO, 0.3 mg/kg, area under the tail skin temperature curve, 45 min post-naloxone): 89% and 73% and 90%
% Inhibition vs. Morphine Control (PO, 0.3 mg/kg, area under the tail skin temperature curve, 45 min post-naloxone, listed as Ethinyl estradiol): 70-90%

Clc1cccc(Cl)c1N=C1NCCN1 [clonidine]
morphine withdrawal hot flush model responsive to agent: responsive

C#C[C@]1(O)CC[C@H]2[C@@H]3[C@H](C)CC4=C(CCC(=O)C4)[C@H]3CC[C@@]21C [tibolone]
morphine withdrawal hot flush model responsive to agent: responsive

medroxyprogesterone
morphine withdrawal hot flush model responsive to agent: responsive
